Laboratory results published in PubChem BioAssay AID1918940 (Molecular Pharmacology Branch, DTP, NCI, 2023).
Where “and” joins values, the source holds several entries; their conditions need not be identical. Equal values may be shown once.

System: NCI-H211 complex spheroid viability
Experiment: Anticancer human tumor NCI-H211 cell line growth inhibition [LSD1];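 note: luminescent viability read after seven days of drug exposure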;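 for viability, T/C: 100% = DMSO vehicle control viability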
Settings: for viability, T/C: stronger effect = lower value
Excerpt: Multicellular complex tumor spheroid response to LSD1 Inhibitor Iadademstat in combination with a variety of drugs and investigational agents in selected tumor cell lines
The current study was undertaken to assess response to LSD1 inhibitors in combination with standard-of-care drugs and investigational agents in solid tumor complex spheroid models as well as in the K-562 leukemia. Complex spheroids include a stromal component modeled by human endothelial cells (HUVEC) and fibroblasts modeled by human mesenchymal stem cells (MSCs). The concentration ranges selected for each drug and investigational agent were based upon clinically achievable concentrations if the clinical Cmax of the agent was known.
Compounds. The drugs and investigational agents used in this study are listed on Table 1. All of the agents used, including staurosporine (NSC755774) and gemcitabine (NSC613327), were obtained from the Developmental Therapeutics Program, NCI. FDA-approved anticancer drugs are available from the NCI at http://dtp.nci.nih.gov/branches/dscb/oncology_drugset_explanation.html. Drugs and investigational agents were >95% pure by proton nuclear magnetic resonance (NMR) and liquid chromatography/mass spectrometry (LC/MS). Stock solutions were prepared at 400x in DMSO, stored at -70 degrees C, and diluted in fresh medium prior to their use. The final concentration of DMSO in cell culture wells never exceeded 0.25% (v/v). The FDA-approved anticancer drug set is available from the Developmental Therapeutics Program at https://dtp.cancer.gov/organization/dscb/obtaining/available_plates.htm. All drugs and investigational agents were tested over a range starting from a high concentration at or near the clinical Cmax and decreasing in half-log increments. If the clinical Cmax for an agent had not been determined, the highest concentration tested was 10 microM.
Cell Lines. The patient-derived cancer cell (PDC) lines: 292921-168-R-J2-PDC, K24384-001-R-PDC, and 521955-158-R2-J5-PDC pancreatic carcinomas, 556581-035-R-J1 ovarian carcinoma, 324938-238-R-J1-PDC, 855422-203-R-J1-PDC and 883617-216-R-J1-PDC urothelial bladder carcinomas, 743489-274-T-PDC renal cell carcinoma, 138582-R-J1 Merkel cell tumor, K60290-347-R-J1 and K57222-313-R-J1-PDC glioblastomas, 653999-131-R-J2-PDC, LG0703-F948-PDC, and 349418-098-R-PDC non-small cell lung carcinomas, 885512-296-R-J2-PDC, 171881-019-R-J1-PDC breast carcinomas and 186277-243-T-J2-PDC and 233499-124-R-J2-PDC colon carcinomas were obtained from the NCI Patient-Derived Models Repository (PDMR, https://pdmr.cancer.gov). The established cell lines NCI/ADR-RES (RRID:CVCL_14520 and OVCAR-5 (RRID:CVCL_1628) ovarian carcinomas, 786-O (RRID:CVCL_1051) and A498 (RRID:CVCL_A498) renal cell carcinoma, NCI-H211 (ATCC, cat. CRL-5824; RRID:CVCL_1529), NCI-H196 (ATCC, cat. CRL-5823, RRID:CVCL_1509), SW 1271 (ATCC, cat. CRL-2177, RRID:CVCL_1716) and NCI-H1876 (ATCC, cat. CRL-5902, RRID:CVCL_1503) small cell lung carcinomas, MDA-MB-231 (RRID:CVCL_0062) and MDA-MB-468 (RRID:CVCL_0419)breast carcinomas (10-12). Pooled donor human umbilical vein endothelial cells (HUVEC, Lonza, cat. CC-2519) and human mesenchymal stem cells (hMSC, Lonza, cat. PT-2501) were purchased from Lonza (Walkersville, MD).
Cell Culture. All cells were maintained in an incubator at 37 degrees C and 5% CO2 with 95% humidity. The PDC lines were cultured according to standard operating procedures established by the NCI PDMR (https://pdmr.cancer.gov). Briefly all PDCs were thawed and cultured in Matrigel-coated flasks prepared with a working solution of 1X Ham's F-12 nutrient mix, without supplementation (Invitrogen, Waltham, MA, cat. 11765054), 100 U/mL penicillin-streptomycin (Invitrogen, cat. 15140122), and 2.5% Matrigel (Corning Inc., Corning, NY, cat. 354248) for the first three passages. […]

[1] = curve of first compound, second compound 0.1 µM
[2] = curve of first compound, second compound 0.316 µM
[3] = curve of first compound, second compound 1 µM
[4] = curve of first compound, second compound 3.16 µM
[5] = curve of first compound, second compound 10 µM
[6] = second compound 0.1 µM, first compound 0.00316 µM
[7] = second compound 0.1 µM, first compound 0.01 µM
[8] = second compound 0.1 µM, first compound 0.0316 µM
[9] = second compound 0.1 µM, first compound 0.1 µM
[10] = second compound 0.1 µM, first compound 0.316 µM
[11] = second compound 0.1 µM, first compound 1 µM
[12] = second compound 0.316 µM, first compound 0.00316 µM
[13] = second compound 0.316 µM, first compound 0.01 µM
[14] = second compound 0.316 µM, first compound 0.0316 µM
[15] = second compound 0.316 µM, first compound 0.1 µM
[16] = second compound 0.316 µM, first compound 0.316 µM
[17] = second compound 0.316 µM, first compound 1 µM
[18] = second compound 1 µM, first compound 0.00316 µM
[19] = second compound 1 µM, first compound 0.01 µM
[20] = second compound 1 µM, first compound 0.0316 µM
[21] = second compound 1 µM, first compound 0.1 µM
[22] = second compound 1 µM, first compound 0.316 µM
[23] = second compound 1 µM, first compound 1 µM
[24] = second compound 3.16 µM, first compound 0.00316 µM
[25] = second compound 3.16 µM, first compound 0.01 µM
[26] = second compound 3.16 µM, first compound 0.0316 µM
[27] = second compound 3.16 µM, first compound 0.1 µM
[28] = second compound 3.16 µM, first compound 0.316 µM
[29] = second compound 3.16 µM, first compound 1 µM
[30] = second compound 10 µM, first compound 0.00316 µM
[31] = second compound 10 µM, first compound 0.01 µM
[32] = second compound 10 µM, first compound 0.0316 µM
[33] = second compound 10 µM, first compound 0.1 µM
[34] = second compound 10 µM, first compound 0.316 µM
[35] = second compound 10 µM, first compound 1 µM

SMILES | IC50 [1] | IC50 [2] | IC50 [3] | IC50 [4] | IC50 [5] | viability, T/C [6] | viability, T/C [7] | viability, T/C [8] | viability, T/C [9] | viability, T/C [10] | viability, T/C [11] | viability, T/C [12] | viability, T/C [13] | viability, T/C [14] | viability, T/C [15] | viability, T/C [16] | viability, T/C [17] | viability, T/C [18] | viability, T/C [19] | viability, T/C [20] | further results
NS(=O)(=O)OCC1CC(n2ccc3c(NC4CCc5ccccc54)ncnc32)CC1O (configuration not stated) |  |  |  |  |  |  |  |  |  |  |  |  |  |  |  |  |  |  |  |  | viability, T/C (compound 0.00949 µM): 27% and 23.2%; viability, T/C (compound 0.03 µM): 11.8% and 10.5%; viability, T/C (compound 0.0949 µM): 2.66% and 3.81%; viability, T/C (compound 0.3 µM): 6.35% and 1.26%; viability, T/C (compound 0.949 µM): 0.58% and 0.97%; viability, T/C (compound 3 µM): 0.31% and 0.53%; IC50 (curve of compound): < 9.49 nM
CC1COCCN1c1cc(-c2ccnn2C)c2ccnc(-c3ccn[nH]3)c2n1 (configuration not stated) + NC1CC1c1ccc(-c2cccc(O)c2)cc1 | 3.78 nM | 3.51 nM | < 3.16 nM | < 3.16 nM | < 3.16 nM | 56.3% | 16.8% | 6.31% | 4.68% | 3.56% | 3.19% | 53.6% | 14% | 6.09% | 4.56% | 4.43% | 4.27% | 47.7% | 16.8% | 6.6% | viability, T/C [21]: 4.61%; viability, T/C [22]: 7.13%; viability, T/C [23]: 4.1%; viability, T/C [24]: 43.6%; viability, T/C [25]: 14.1%; viability, T/C [26]: 6.53%; viability, T/C [27]: 4.92%; viability, T/C [28]: 4.52%; viability, T/C [29]: 4.59%; viability, T/C [30]: 34.5%; viability, T/C [31]: 14.5%; viability, T/C [32]: 7.33%; viability, T/C [33]: 4.8%; viability, T/C [34]: 4.76%; viability, T/C [35]: 6.03%
Nc1ncn(C2CC(O)C(CO)O2)c(=O)n1 (configuration not stated) + NC1CC1c1ccc(-c2cccc(O)c2)cc1 | < 3.16 nM | < 3.16 nM | < 3.16 nM | < 3.16 nM | < 3.16 nM | 23.1% | 11.9% | 5.65% | 3.94% | 3.2% | 4.03% | 18.7% | 9.82% | 6.26% | 4.33% | 3.7% | 4.51% | 17.9% | 10.6% | 5.51% | viability, T/C [21]: 4%; viability, T/C [22]: 4.16%; viability, T/C [23]: 4.12%; viability, T/C [24]: 24.6%; viability, T/C [25]: 13.7%; viability, T/C [26]: 6.51%; viability, T/C [27]: 4.45%; viability, T/C [28]: 3.03%; viability, T/C [29]: 4.93%; viability, T/C [30]: 22.7%; viability, T/C [31]: 17.1%; viability, T/C [32]: 9.21%; viability, T/C [33]: 5.28%; viability, T/C [34]: 3.35%; viability, T/C [35]: 3.79%
